How the values were obtained:
pERK in MeWo (NF1-LOF) = assay: pERK modulation in vitro, MSD ELISA, MeWo; conditions: Homo sapiens, 1 h, read-out: pERK EC50
Procedure: MSD ELISA experiments were conducted by WuXi AppTec on whole cell lysates and generated using the Phospho/Total ERK1/2 Assay Whole Cell Lysate Kit (MSD, cat. no. K15107D) according to the manufacturer’s protocol.
In vitro modulation of pERK levels was assessed in NF1-LOF and BRAF V600E tumor cell lines by MSD ELISA.
pERK levels were assessed 1 hour after treatment with each of the test compounds or control. Preparation of 96-well plates for MSD ELISA was performed according to the manufacturer’s instructions using the Phospho/Total ERK1/2 Assay Whole Cell Lysate Kit (MSD, cat no. K15107D). The plates were read using the MSD reader (MESO QuickPlex SQ120, cat. no. SQ120, RRID: SCR_020304). The A375 BRAF V600E tumor cell line served as a positive control.
The percent phosphoprotein in a sample was calculated using MSD phospho-/total multiplex phosphoprotein assays, as well as the following formula: anti-total and anti-phospho assay in the same well: % phosphoprotein = [(2 × phospho signal)/(phospho signal + total signal)] × 100. The ratio of pERK to total ERK was normalized to the ratio of the DMSO control group. EC50 pERK values and concentration response curves were generated using GraphPad Prism software analysis (RRID: SCR_002798).

PK parameters in human = assay type: in vivo; conditions: 600 mg, QW

`C[C@@H](NC(=O)c1ncnc(N)c1Cl)c1ncc(C(=O)Nc2cc(C(F)(F)F)c(Cl)cn2)s1` [Tovorafenib] showed an EC50 (pERK in MeWo (NF1-LOF)) of 8.3 µM, a Cmin (PK parameters in human) of 899 ng/mL and an AUC(0-t) (PK parameters in human; in vivo, calculated from weekly AUC0-168 divided by 7, read-out: Daily AUC0-24) of 47600 ng·h/mL.

Reference: article PMC12015663 (Cancer Research Communications, 2025)
